From the supplement of paper PMC10307832

What was measured:
Experiment in all cases: relative viability (nuclei count vs DMSO), 5 days (fraction); higher = more cells survive
HCC-44 = tested on: HCC-44
Procedure, shortened: (§1)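 Values are medians from duplicate plates. Each reflects relative viability, defined as the nuclei count of treated wells over that of vehicle wells. Lung cancer cell lines in 1536-well plates were pin-tool dosed one day after seeding with one drug alone or with a fixed anchor-drug dose plus five library-drug doses (not always all listed) in √10 steps, then fixed, stained and imaged at 4× after 5 days.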

SK-MES-1 = tested on: SK-MES-1
Procedure, shortened: as §1

NCI-H441 = tested on: NCI-H441
Procedure, shortened: as §1

201T = tested on: 201T
Procedure, shortened: as §1

NCI-H1975 = tested on: NCI-H1975
Procedure, shortened: as §1

EKVX = tested on: EKVX
Procedure, shortened: as §1

LK-2 = tested on: LK-2
Procedure, shortened: as §1

COR-L 105 = tested on: COR-L 105
Procedure, shortened: as §1

NCI-H1437 = tested on: NCI-H1437
Procedure, shortened: as §1

NCI-H596 = tested on: NCI-H596
Procedure, shortened: as §1

NCI-H650 = tested on: NCI-H650
Procedure, shortened: as §1

SW 900 = tested on: SW 900
Procedure, shortened: as §1

NCI-H838 = tested on: NCI-H838
Procedure, shortened: as §1

HCC-827 = tested on: HCC-827
Procedure, shortened: as §1

HCC-15 = tested on: HCC-15
Procedure, shortened: as §1

NCI-H1792 = tested on: NCI-H1792
Procedure, shortened: as §1

NCI-H23 = tested on: NCI-H23
Procedure, shortened: as §1

A-427 = tested on: A-427
Procedure, shortened: as §1

BEN = tested on: BEN
Procedure, shortened: as §1

HARA = tested on: HARA
Procedure, shortened: as §1

NCI-H1666 = tested on: NCI-H1666
Procedure, shortened: as §1

COR-L23 = tested on: COR-L23
Procedure, shortened: as §1

NCI-H358 = tested on: NCI-H358
Procedure, shortened: as §1

## NC(=O)Nc1cc(-c2cccc(F)c2)sc1C(=O)N[C@H]1CCCNC1 [AZD7762] + N=C(N)NC(=N)NCCc1ccccc1 [Phenformin] (partner 250 µM)
HCC-44; first compound 0.01 µM
  relative viability: 0.154
HCC-44; first compound 0.03162 µM
  relative viability: 0.265
HCC-44; first compound 0.1 µM
  relative viability: 0.16
HCC-44; first compound 0.3162 µM
  relative viability: 0.185
HCC-44; first compound 1 µM
  relative viability: 0.121
SK-MES-1; first compound 0.01 µM
  relative viability: 0.699
SK-MES-1; first compound 0.03162 µM
  relative viability: 0.663
SK-MES-1; first compound 0.1 µM
  relative viability: 0.709
SK-MES-1; first compound 0.3162 µM
  relative viability: 0.501
SK-MES-1; first compound 1 µM
  relative viability: 0.158
NCI-H441; first compound 0.01 µM
  relative viability: 1.05
NCI-H441; first compound 0.03162 µM
  relative viability: 0.732
NCI-H441; first compound 0.1 µM
  relative viability: 0.91
NCI-H441; first compound 0.3162 µM
  relative viability: 1.04
NCI-H441; first compound 1 µM
  relative viability: 0.618
201T; first compound 0.01 µM
  relative viability: 0.465
201T; first compound 0.03162 µM
  relative viability: 0.406
201T; first compound 0.1 µM
  relative viability: 0.453
201T; first compound 0.3162 µM
  relative viability: 0.495
201T; first compound 1 µM
  relative viability: 0.442
NCI-H1975; first compound 0.01 µM
  relative viability: 0.425
NCI-H1975; first compound 0.03162 µM
  relative viability: 0.411
NCI-H1975; first compound 0.1 µM
  relative viability: 0.417
NCI-H1975; first compound 0.3162 µM
  relative viability: 0.386
NCI-H1975; first compound 1 µM
  relative viability: 0.328
EKVX; first compound 0.01 µM
  relative viability: 0.194
EKVX; first compound 0.03162 µM
  relative viability: 0.244
EKVX; first compound 0.1 µM
  relative viability: 0.245
EKVX; first compound 0.3162 µM
  relative viability: 0.229
EKVX; first compound 1 µM
  relative viability: 0.206
LK-2; first compound 0.01 µM
  relative viability: 0.396
LK-2; first compound 0.03162 µM
  relative viability: 0.75
LK-2; first compound 0.1 µM
  relative viability: 0.384
LK-2; first compound 0.3162 µM
  relative viability: 0.45
LK-2; first compound 1 µM
  relative viability: 0.31
COR-L 105; first compound 0.01 µM
  relative viability: 0.5
COR-L 105; first compound 0.03162 µM
  relative viability: 0.491
COR-L 105; first compound 0.1 µM
  relative viability: 0.477
COR-L 105; first compound 0.3162 µM
  relative viability: 0.429
COR-L 105; first compound 1 µM
  relative viability: 0.254
NCI-H1437; first compound 0.01 µM
  relative viability: 0.304
NCI-H1437; first compound 0.03162 µM
  relative viability: 0.225
NCI-H1437; first compound 0.1 µM
  relative viability: 0.328
NCI-H1437; first compound 0.3162 µM
  relative viability: 0.343
NCI-H1437; first compound 1 µM
  relative viability: 0.279
NCI-H596; first compound 0.01 µM
  relative viability: 0.701
NCI-H596; first compound 0.03162 µM
  relative viability: 0.836
NCI-H596; first compound 0.1 µM
  relative viability: 0.641
NCI-H596; first compound 0.3162 µM
  relative viability: 0.809
NCI-H596; first compound 1 µM
  relative viability: 0.673
NCI-H650; first compound 0.01 µM
  relative viability: 0.453
NCI-H650; first compound 0.03162 µM
  relative viability: 0.46
NCI-H650; first compound 0.1 µM
  relative viability: 0.49
NCI-H650; first compound 0.3162 µM
  relative viability: 0.446
NCI-H650; first compound 1 µM
  relative viability: 0.538
SW 900; first compound 0.01 µM
  relative viability: 0.777
SW 900; first compound 0.03162 µM
  relative viability: 0.746
SW 900; first compound 0.1 µM
  relative viability: 0.65
SW 900; first compound 0.3162 µM
  relative viability: 0.579
SW 900; first compound 1 µM
  relative viability: 0.29
NCI-H838; first compound 0.01 µM
  relative viability: 0.538
NCI-H838; first compound 0.03162 µM
  relative viability: 0.566
NCI-H838; first compound 0.1 µM
  relative viability: 0.669
NCI-H838; first compound 0.3162 µM
  relative viability: 0.524
NCI-H838; first compound 1 µM
  relative viability: 0.164
HCC-827; first compound 0.01 µM
  relative viability: 0.406
HCC-827; first compound 0.03162 µM
  relative viability: 0.422
HCC-827; first compound 0.1 µM
  relative viability: 0.442
HCC-827; first compound 0.3162 µM
  relative viability: 0.435
HCC-827; first compound 1 µM
  relative viability: 0.249
HCC-15; first compound 0.01 µM
  relative viability: 0.483
HCC-15; first compound 0.03162 µM
  relative viability: 0.475
HCC-15; first compound 0.1 µM
  relative viability: 0.432
HCC-15; first compound 0.3162 µM
  relative viability: 0.473
HCC-15; first compound 1 µM
  relative viability: 0.445
NCI-H1792; first compound 0.01 µM
  relative viability: 0.412
NCI-H1792; first compound 0.03162 µM
  relative viability: 0.26
NCI-H1792; first compound 0.1 µM
  relative viability: 0.442
NCI-H1792; first compound 0.3162 µM
  relative viability: 0.736
NCI-H1792; first compound 1 µM
  relative viability: 0.258
NCI-H23; first compound 0.01 µM
  relative viability: 0.813
NCI-H23; first compound 0.03162 µM
  relative viability: 0.831
NCI-H23; first compound 0.1 µM
  relative viability: 0.808
NCI-H23; first compound 0.3162 µM
  relative viability: 0.654
NCI-H23; first compound 1 µM
  relative viability: 0.434
A-427; first compound 0.01 µM
  relative viability: 0.255
A-427; first compound 0.03162 µM
  relative viability: 0.346
A-427; first compound 0.1 µM
  relative viability: 0.292
A-427; first compound 0.3162 µM
  relative viability: 0.304
A-427; first compound 1 µM
  relative viability: 0.197
BEN; first compound 0.01 µM
  relative viability: 0.316
BEN; first compound 0.03162 µM
  relative viability: 0.271
BEN; first compound 0.1 µM
  relative viability: 0.222
BEN; first compound 0.3162 µM
  relative viability: 0.266
BEN; first compound 1 µM
  relative viability: 0.245
HARA; first compound 0.01 µM
  relative viability: 0.569
HARA; first compound 0.03162 µM
  relative viability: 0.509
HARA; first compound 0.1 µM
  relative viability: 0.501
HARA; first compound 0.3162 µM
  relative viability: 0.282
HARA; first compound 1 µM
  relative viability: 0.138
NCI-H1666; first compound 0.01 µM
  relative viability: 0.549
NCI-H1666; first compound 0.03162 µM
  relative viability: 0.596
NCI-H1666; first compound 0.1 µM
  relative viability: 0.532
NCI-H1666; first compound 0.3162 µM
  relative viability: 0.554
NCI-H1666; first compound 1 µM
  relative viability: 0.467
COR-L23; first compound 0.01 µM
  relative viability: 0.458
COR-L23; first compound 0.03162 µM
  relative viability: 0.446
COR-L23; first compound 0.1 µM
  relative viability: 0.515
COR-L23; first compound 0.3162 µM
  relative viability: 0.349
COR-L23; first compound 1 µM
  relative viability: 0.131
NCI-H358; first compound 0.01 µM
  relative viability: 0.305
NCI-H358; first compound 0.03162 µM
  relative viability: 0.401
NCI-H358; first compound 0.1 µM
  relative viability: 0.334
NCI-H358; first compound 0.3162 µM
  relative viability: 0.242
NCI-H358; first compound 1 µM
  relative viability: 0.185
